According to patent US20210353639A1, “MAST1 AND USES FOR DIAGNOSING AND TREATING CANCER” (EMORY UNIVERSITY, priority 2018, published 2021):
Entries after “also recorded” stand apart in the source; their conditions may differ.

Legend:
MAST1 = molecular target: T1, MAST1 (Homo sapiens, UniProt Q9Y2H9); assay: MAST1 in vitro kinase assay (purified GST-MAST1, ADP-Glo); format: biochemical; settings: 10 μM drugs incubated with purified GST-MAST1
T1 construct: GST; made in house; host or cells: 293T
Procedure: GST-MAST1 variants were enriched from 293T and kinase activity was assessed by ADP-Glo Kinase assay using myelin basic protein (MBP) as a substrate.
10 μM drugs were incubated with purified GST-MAST1 and applied to the in vitro kinase assay.
FIG. 7G show data on the effect of lestaurtinib on MAST1 activity at a range of ATP concentrations.

MEK1-cRaf complex = molecular target: T2, MEK1-cRaf complex (Homo sapiens, UniProt P04049+Q02750); assay: In vitro MEK1-cRaf dissociation, purified complex from KB-3-1 cells; format: biochemical
T2 construct: endogenous in cells; host or cells: KB-3-1
From the text: Samples were collected at different time points and subjected to immunoblotting. Density analysis of relative amount of cRaf bound to MEK1 from three biological replicates are shown.

cRaf-MEK1 = molecular target: T3, cRaf-MEK1 (Homo sapiens, UniProt P04049+Q02750); assay: cRaf-MEK1 dissociation in cancer cells (MEK1 immunoprecipitation); format: cell-based
T3 construct: endogenous in cells; host or cells: KB-3-1 and other cancer cell lines
Procedure: KB-3-1 cells were treated with different compounds as indicated, followed by MEK1 immunoprecipitation and immunoblotting.

[1] = Cisplatin sensitivity / cell viability with MAST1 inhibitors in KB-3-1 cells; format: cell-based; settings: human, read-out: attenuation of cell viability when treated alone
TKO-002 = assay: Combination cell viability, SCLC patient-derived tumor TKO-002; format: cell-based, human; settings: combination of lestaurtinib and cisplatin, platinum-refractory SCLC TKO-002
From the text: CI value for synergistic effect is shown.

KB-3-1 cells = assay: Combination cell viability, Combination Index by CompuSyn, KB-3-1; format: cell-based, human; settings: lestaurtinib in combination with cisplatin
From the text: (§1) Combination Index (CI) value for cell viability was obtained by CompuSyn.

212LN cells = assay: Combination cell viability, Combination Index by CompuSyn, 212LN; format: cell-based, human; settings: lestaurtinib in combination with cisplatin
From the text: as §1

[2] = Tolerability of lestaurtinib and cisplatin dosage (body weight, histopathology, hematopoietic properties); format: in vivo, mice; settings: 20 mg/kg lestaurtinib and 5 mg/kg cisplatin
Lung PDX (Pt-9 tumor) = assay: Tumor growth in lung PDX mice (Pt-9 tumor), lestaurtinib or trametinib with cisplatin; format: in vivo; settings: in combination with cisplatin (5 mg/kg i.p. twice a week); lestaurtinib 20 mg/kg i.p. 5 times a week, trametinib 1 mg/kg oral daily

T1 sequence (Q9Y2H9 whole entry): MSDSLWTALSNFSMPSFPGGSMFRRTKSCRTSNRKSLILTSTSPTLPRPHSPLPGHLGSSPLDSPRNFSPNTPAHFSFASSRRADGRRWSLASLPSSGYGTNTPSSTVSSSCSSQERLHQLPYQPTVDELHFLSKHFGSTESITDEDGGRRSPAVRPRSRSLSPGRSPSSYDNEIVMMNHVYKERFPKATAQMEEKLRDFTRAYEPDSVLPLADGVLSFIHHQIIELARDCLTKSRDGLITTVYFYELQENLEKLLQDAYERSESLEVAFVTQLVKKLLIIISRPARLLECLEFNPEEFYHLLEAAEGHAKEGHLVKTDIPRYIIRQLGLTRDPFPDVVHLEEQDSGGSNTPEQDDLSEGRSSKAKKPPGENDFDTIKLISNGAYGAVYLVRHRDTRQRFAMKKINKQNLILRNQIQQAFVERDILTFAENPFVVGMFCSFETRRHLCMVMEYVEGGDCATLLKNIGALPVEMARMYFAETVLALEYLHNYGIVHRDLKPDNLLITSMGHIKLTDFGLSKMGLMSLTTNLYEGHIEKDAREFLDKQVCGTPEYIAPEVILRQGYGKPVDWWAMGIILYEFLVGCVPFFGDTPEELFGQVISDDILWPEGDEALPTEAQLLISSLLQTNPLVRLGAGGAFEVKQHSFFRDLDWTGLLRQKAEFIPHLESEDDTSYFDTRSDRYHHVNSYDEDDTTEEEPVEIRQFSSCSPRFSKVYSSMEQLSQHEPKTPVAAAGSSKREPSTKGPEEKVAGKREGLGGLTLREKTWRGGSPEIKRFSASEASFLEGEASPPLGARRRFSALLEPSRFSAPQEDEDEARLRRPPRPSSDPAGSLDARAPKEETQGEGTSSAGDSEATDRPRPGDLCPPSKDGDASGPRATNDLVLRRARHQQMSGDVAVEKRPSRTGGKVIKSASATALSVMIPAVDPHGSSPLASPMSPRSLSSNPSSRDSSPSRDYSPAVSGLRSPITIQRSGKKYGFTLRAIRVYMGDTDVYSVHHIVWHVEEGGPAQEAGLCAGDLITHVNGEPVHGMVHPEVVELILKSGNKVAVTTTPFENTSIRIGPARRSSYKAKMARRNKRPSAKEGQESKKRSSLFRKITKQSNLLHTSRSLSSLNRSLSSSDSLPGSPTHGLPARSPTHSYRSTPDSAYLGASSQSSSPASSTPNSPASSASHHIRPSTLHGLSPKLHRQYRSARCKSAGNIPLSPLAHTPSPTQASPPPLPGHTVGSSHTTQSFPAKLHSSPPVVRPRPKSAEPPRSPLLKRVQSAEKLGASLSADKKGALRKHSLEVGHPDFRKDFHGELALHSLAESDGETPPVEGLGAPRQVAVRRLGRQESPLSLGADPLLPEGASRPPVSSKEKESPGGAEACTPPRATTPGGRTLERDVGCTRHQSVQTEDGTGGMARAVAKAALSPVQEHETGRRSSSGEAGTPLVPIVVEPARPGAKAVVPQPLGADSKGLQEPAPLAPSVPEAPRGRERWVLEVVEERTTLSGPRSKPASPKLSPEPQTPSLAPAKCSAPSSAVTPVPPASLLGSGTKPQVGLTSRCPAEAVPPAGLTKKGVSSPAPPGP
T2 sequence (Q02750 whole entry): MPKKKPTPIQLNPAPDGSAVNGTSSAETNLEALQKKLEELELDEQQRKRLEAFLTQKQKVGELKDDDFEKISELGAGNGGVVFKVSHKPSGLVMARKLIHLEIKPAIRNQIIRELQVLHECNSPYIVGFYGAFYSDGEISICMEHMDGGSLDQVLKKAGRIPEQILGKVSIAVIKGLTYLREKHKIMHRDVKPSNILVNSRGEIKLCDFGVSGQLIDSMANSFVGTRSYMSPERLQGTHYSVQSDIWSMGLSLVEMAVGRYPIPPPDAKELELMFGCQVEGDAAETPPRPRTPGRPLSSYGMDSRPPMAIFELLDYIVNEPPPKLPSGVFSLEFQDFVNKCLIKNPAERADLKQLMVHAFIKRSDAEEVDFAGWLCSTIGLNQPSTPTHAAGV
T2 sequence (P04049 whole entry): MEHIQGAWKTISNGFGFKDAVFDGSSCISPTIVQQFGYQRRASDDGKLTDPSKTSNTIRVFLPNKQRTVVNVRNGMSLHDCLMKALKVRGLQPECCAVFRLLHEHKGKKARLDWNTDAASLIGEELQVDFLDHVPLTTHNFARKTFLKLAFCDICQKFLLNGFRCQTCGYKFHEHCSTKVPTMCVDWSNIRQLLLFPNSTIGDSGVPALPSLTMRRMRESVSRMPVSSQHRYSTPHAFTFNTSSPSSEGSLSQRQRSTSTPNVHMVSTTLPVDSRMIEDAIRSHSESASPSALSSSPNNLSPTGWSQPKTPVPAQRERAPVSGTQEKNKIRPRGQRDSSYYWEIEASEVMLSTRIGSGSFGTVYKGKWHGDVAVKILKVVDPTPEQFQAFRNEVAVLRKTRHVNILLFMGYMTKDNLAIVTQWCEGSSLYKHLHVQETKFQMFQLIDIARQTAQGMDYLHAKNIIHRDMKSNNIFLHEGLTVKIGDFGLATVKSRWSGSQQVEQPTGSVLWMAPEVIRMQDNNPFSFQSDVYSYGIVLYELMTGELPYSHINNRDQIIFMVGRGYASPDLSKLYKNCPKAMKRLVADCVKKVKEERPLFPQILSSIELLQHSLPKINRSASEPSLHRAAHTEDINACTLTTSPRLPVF
T3 sequence (Q02750 whole entry): as the sequence (Q02750 whole entry) above
T3 sequence (P04049 whole entry): as the sequence (P04049 whole entry) above

## Cc1[nH]c(C=C2C(=O)Nc3ccc(F)cc32)c(C)c1C(=O)NCC(O)CN1CCOCC1 (stereo not drawn) [SU14813, 5-((5-fluoro-2-oxo-1,2-dihydro-3H-indol-3-ylidene)methyl)-N-(2-hydroxy-3-morpholin-4-ylpropyl)-2,4-dimethyl-1H-pyrrole-3-carboxamide]
MAST1
  MAST1 activity in in vitro MAST1 kinase assay: inhibited MAST1 activity in vitro

## N.N.[Cl][Pt][Cl] [cisplatin]
MEK1-cRaf complex; 5 μg/ml cisplatin, time course
  time to dissociation of cRaf from MEK1: within one hour
MEK1-cRaf complex; purified MEK1-cRaf complex, cisplatin 0-5 μg/ml for 2 hours
  dissociation of cRaf from MEK1 in vitro: dissociates cRaf from MEK1 in a dose-dependent manner
cRaf-MEK1; 5 μg/ml cisplatin for 24 hours
  dissociation of cRaf from MEK1 in diverse types of cancer cells: dissociates cRaf

## COc1cc(Nc2c(C#N)cnc3cc(OCCCN4CCN(C)CC4)c(OC)cc23)c(Cl)cc1Cl [bosutinib, 4-[(2,4-Dichloro-5-methoxyphenyl)amino]-6-methoxy-7-[3-(4-methyl-1-piperazinyl)propoxy]-3-quinolinecarbonitrile]
MAST1
  MAST1 activity in in vitro MAST1 kinase assay: inhibited MAST1 activity in vitro

## CC(=O)O[C@H]1C(=O)[C@@]2(C)[C@H]([C@H](OC(=O)c3ccccc3)[C@]3(O)C[C@H](OC(=O)[C@H](O)[C@@H](NC(=O)c4ccccc4)c4ccccc4)C(C)=C1C3(C)C)[C@]1(OC(C)=O)CO[C@@H]1C[C@@H]2O [paclitaxel]
cRaf-MEK1; KB-3-1 cells
  dissociation of cRaf-MEK1 induced by DNA damaging agents and cytotoxic drugs: not

## CN[C@@H]1C[C@H]2O[C@@](C)([C@@H]1OC)n1c3ccccc3c3c4c(c5c6ccccc6n2c5c31)C(=O)NC4 [staurosporine, 6-methoxy-5-methyl-7-methylamino-6,7,8,9,15,16-hexahydro-5H,14H-5,9-epoxy-4b,9a,15-triazadibenzo[b,h]cyclonona[1,2,3,4-jkl]cyclopenta[e]-as-indacen-14-one]
MAST1
  MAST1 activity in in vitro MAST1 kinase assay: inhibited MAST1 activity in vitro

## CN1CCN(c2ccc3[nH]c(-c4c(N)c5c(F)cccc5[nH]c4=O)nc3c2)CC1 [dovitinib, 4-amino-5-fluoro-3-(5-(4-methylpiperazin-1-yl)-1H-benzimidazol-2-yl)quinolin-2(1H)-one]
MAST1
  MAST1 activity in in vitro MAST1 kinase assay: inhibited MAST1 activity in vitro

## C[C@]12O[C@H](C[C@]1(O)CO)n1c3ccccc3c3c4c(c5c6ccccc6n2c5c31)CNC4=O [lestaurtinib, 7-hydroxy-7-(hydroxymethyl)-8-methyl-5,6,7,8,13,14-hexahydro-15H-16-oxa-4b,8a,14-triaza-5,8-methanodibenzo[b,h]cycloocta[jkl]cyclopenta[e]-as-indacen-15-one]
[1]
  cytotoxicity at 48 h, 100 nM: < 20%
TKO-002
  CI value for cell viability: 0.57
KB-3-1 cells
  combination index (CI) for cell viability: 0.256
212LN cells
  combination index (CI) for cell viability: 0.257
[2]
  changes in body weight, histopathology, or hematopoietic properties: did not induce significant changes

## N#CC(=C(/N)Sc1ccccc1N)/C(C#N)=C(\N)Sc1ccccc1N [U0126]
Cancer cells
  sensitization of cancer cells to cisplatin by MEK1 inhibitor: sensitized cancer cells to cisplatin

## CC(=O)Nc1cccc(-n2c(=O)n(C3CC3)c(=O)c3c(Nc4ccc(I)cc4F)n(C)c(=O)c(C)c32)c1 [trametinib, N-[3-[3-cyclopropyl-5-[(2-fluoro-4-iodophenyl)amino]-3,4,6,7-tetrahydro-6,8-dimethyl-2,4,7-trioxopyrido[4,3-d]pyrimidin-1(2H)-yl]phenyl]acetamide]
Lung PDX (Pt-9 tumor)
  PDX tumor growth and proliferation: attenuated PDX tumor growth and proliferation; also recorded: sensitizes cancer cells to cisplatin
